Experimental data from patent publication US8383406B2, “Method for stimulating the proliferation of differentiated cells belonging to the chondrogenic lineage” (Maco Parma, priority 2007, dated 2013).
Where a SMILES comes first, the peptide text is derived from it.

How the values were obtained:
hybridoma cells = conditions: added to the culture medium; WO 01/46220; cited from earlier work
[1] = system: human osteoarthritic chondrocytes; test: Calcein-AM test, viability and cytotoxicity of the cells; assay type: cell-based; conditions: 20 mM glycylglycine; cultured for 7 days; FIG. 3 curve C vs B
Method: (§1) The analyses were carried out using an FACScan cytometer equipped with ProCellQuest software, under the following experimental conditions: cells in suspension in a PBS isotonic buffer at pH 7.4, having an osmolality of 320-330 mOsmol/kg, with the number of cells analysed being 10,000.
The viability of the chondrocytes and the toxicity of the peptide were studied using the method developed by Bratosin et al (2005) and based on measuring the cellular esterase activity by means of calcein-AM.
Principle—Calcein-AM is a non-fluorescent acetic ester of fluorescein which passively passes through the membranes of the viable cells and is transformed by the cytosolic esterases into fluorescent calcein, which provides an intense green signal at 530 nm and which is retained only by the cells having an intact plasma membrane. […]
Operating procedure—The chondrocytes (4×10^5) in suspension in 200 μl of PBS buffer at pH 7.4 are incubated (45 min at 37° C.) in darkness, in the presence of 5 μM calcein-AM. Next, 0.5 ml of PBS buffer at pH 7.4 is added to the suspension, which is immediately analysed by flow cytometry in the FL1 logarithmic mode (number of cells counted: 10,000).
The intensity of the fluorescence on a logarithmic scale is plotted on the x-axis and the relative number of cells is plotted on the y-axis.

chondrocytes = test: Proliferation rate of the cells, glycylglycine concentration kinetics; assay type: cell-based, human; conditions: for Number of cells obtained / Proliferation rate after 3 days: 76,000 cells cultured for three days; for Proliferation rate/culture medium without Gly-Gly: three days
Method: The chondrocytes were cultured on uncoated culture plates with polystyrene wells, at 37° C. for 1 to 7 days in a CO2 atmosphere (5%), in the absence or presence of 20 mM of glycylglycine, in a DMEM medium containing 10% foetal calf serum supplemented with a mixture of antibiotics and antimyotics (10 U/ml penicillin, 10 mg/ml streptomycin, 0.025 mg/ml amphotericin B) and 2 mM L-glutamine. With a view to subsequent cytometric analyses, the chondrocytes were detached by incubating for 3 minutes in a pH 7.4 PBS buffer solution of trypsin (0.25 g/100 ml) and EDTA (0.2 g/100 ml) kept at 37° C. After 3 washings with PBS buffer at pH 7.4, and after counting the cells using a Malassez chamber, the chondrocytes were subjected to various flow cytometry analyses described hereinbelow. The table below compiles the proliferation rates of cells cultured in the absence or presence of various concentrations of glycylglycine. In order to carry out this test, 76,000 cells were cultured for three days under the culture conditions presented below.

[2] = system: human osteoarthritic chondrocytes; test: Culturing of chondrocytes with or without glycylglycine, cell counting; assay type: cell-based
Method: The articular cartilage was sampled under sterile conditions from an osteoarthritic patient. The chondrocytes were isolated according to the methods of Green (1971) and Kuettner et al (1982), by enzymatic dissociation of the cartilage in Dulbecco's DMEM medium supplemented with a mixture of antibiotics and antimycotics (10 U/ml penicillin, 10 mg/ml streptomycin, 0.025 mg/ml amphotericin B), 2 mM L-glutamine and 10% foetal calf serum. The cartilage was cut up into small fragments and incubated (37° C.; 20 min) in the aforegoing DMEM medium containing 1 mg/ml of sheep testicular hyaluronidase. The fragments were next washed in PBS buffer (Phosphate Saline Buffer) with a pH of 7.4, and then incubated (60 min, at 37° C.) in the same buffer containing 0.25 g/100 mL trypsin. The fragments of cartilage previously washed with the PBS buffer with a pH of 7.4 were finally dissociated via incubation (15 hrs at 37° C.) in the DMEM medium containing 0.2% collagenase of Clostridium histolyticum and 10% foetal calf serum. The cells were collected by centrifugation (15 min, 3000 g), washed 2 times with the complete DMEM medium and cultured under the conditions hereinbelow. The chondrocytes were cultured on uncoated culture plates with polystyrene wells, at 37° C. for 1 to 7 days in a CO2 atmosphere (5%), in the absence or presence of 20 mM of glycylglycine, in a DMEM medium containing 10% foetal calf serum supplemented with a mixture of antibiotics and antimyotics (10 U/ml penicillin, 10 mg/ml streptomycin, 0.025 mg/ml amphotericin B) and 2 mM L-glutamine. With a view to subsequent cytometric analyses, the chondrocytes were detached by incubating for 3 minutes in a pH 7.4 PBS buffer solution of trypsin (0.25 g/100 ml) and EDTA (0.2 g/100 ml) kept at 37° C. After 3 washings with PBS buffer at pH 7.4, and after counting the cells using a Malassez chamber, the chondrocytes were subjected to various flow cytometry analyses described hereinbelow. FIGS. 1A and 1B show this large-scale production of the chondrocytes. […]

[3] = system: human osteoarthritic chondrocytes; test: Cell proliferation test, PKH-26 flow cytometry; assay type: cell-based; conditions: 20 mM glycylglycine; cultured for 3 days; FIG. 2 curve C vs B
Method: as §1
Principle—Prior to being cultured, the chondrocytes were irreversibly labelled with a vital fluorescent membrane intercalator derived from arcidine orange, the PKH-26, with a view to following cell proliferation via flow cytometry, which entails a decrease in the overall fluorescence of the cells.
Operating procedure—10^6 chondrocytes in suspension in 1 ml of the “diluent C” of the labelling kit are added to 1 ml of a […] solution of PKH-26 in the same diluent. After 4 min of incubation at ambient temperature, the reaction is stopped by the addition of 2 ml of foetal calf serum and then, after incubating for one minute, 4 ml of complete DMEM medium are added. After centrifuging (5 min, 2000 g at 25° C.), the resulting sediment is washed 3 times with 10 ml of complete DMEM medium. The cells are then cultured for 3 days under the conditions described in example 1.2, detached from the support thereof according to the above-described method, placed back in suspension in a PBS buffer at pH 7.4 and analyzed by flow cytometry in the logarithmic mode FL2.

NCC(=O)NCC(=O)O [glycylglycine] (H-Gly-Gly-OH)
proliferation of hybridoma cells in comparison with non-supplemented culture medium (hybridoma cells): only very slightly increases
toxicity to / viability of the chondrocytes (calcein-AM) [1]: not toxic to the chondrocytes and does not reduce the viability thereof
Number of cells obtained (chondrocytes; 20 mM Gly-Gly): 190,000 cells/ml
Proliferation rate after 3 days (chondrocytes; 20 mM Gly-Gly): 150%
Proliferation rate/culture medium without Gly-Gly (chondrocytes; 20 mM Gly-Gly): 2.11
Number of cells obtained (chondrocytes; 50 mM Gly-Gly): 124,000 cells/ml
Proliferation rate after 3 days (chondrocytes; 50 mM Gly-Gly): 63%
Proliferation rate/culture medium without Gly-Gly (chondrocytes; 50 mM Gly-Gly): 1.38
Number of cells obtained (chondrocytes; 100 mM Gly-Gly): 145,000 cells/ml
Proliferation rate after 3 days (chondrocytes; 100 mM Gly-Gly): 91%
Proliferation rate/culture medium without Gly-Gly (chondrocytes; 100 mM Gly-Gly): 1.61
Number of cells obtained (chondrocytes; 200 mM Gly-Gly): 130,000 cells/ml
Proliferation rate after 3 days (chondrocytes; 200 mM Gly-Gly): 71%
Proliferation rate/culture medium without Gly-Gly (chondrocytes; 200 mM Gly-Gly): 1.44
Number of cells obtained (chondrocytes; 500 mM Gly-Gly): 112,000 cells/ml
Proliferation rate after 3 days (chondrocytes; 500 mM Gly-Gly): 47%
Proliferation rate/culture medium without Gly-Gly (chondrocytes; 500 mM Gly-Gly): 1.24
proliferation rate in comparison with identical culture medium not supplemented with glycylglycine ([2]; 20 mM glycylglycine, DMEM medium, 7 days (FIGS. 1A and 1B), cell counting): multiplied by three
proliferation rate in comparison with non-supplemented culture medium (summary statement) ([2]; glycylglycine added to the chondrocyte culture medium): multiplied by three, and even by seven
dedifferentiation of the chondrocytes into fibroblasts ([2]; presence of glycylglycine in culture medium): blocks the dedifferentiation of the chondrocytes into fibroblasts
PKH-26 fluorescence / cell divisions compared with DMEM medium without glycylglycine [3]: the cell divisions were more numerous

NCC(=O)O [glycine monomer, glycine, reference compound]
proliferation of hybridoma cells in comparison with non-supplemented culture medium (hybridoma cells): only very slightly increases
